Measured values published in patent EP4786472A1, “BRD4 PROTEIN DEGRADATION AGENT COMPOUND, AND PREPARATION METHOD AND USE THEREFOR” (Miracure Biotechnology Limited, priority 2023, dated 2025).
Read-outs that look alike come from different tables or passages of the source.

Key:
Format in all cases: cell-based
LNCaP = test: Cell proliferation assay (CellTiterGlo); conditions: LNCaP cells, 72 h compound treatment, CellTiterGlo cell viability, read-out: LNCap ATP average IC50
Method: (§1) Test Example 1. Cell Proliferation Assay
(§2) The cell line used was 22RV1 or LNCaP, and the medium was RPMI-1640 containing 10% FBS and antibiotics. All incubations were performed at 37 °C in a humidified carbon dioxide incubator.
(§3) On day 1, cells were digested with 0.25% trypsin (containing EDTA) and collected by centrifugation. The cells were seeded in a 96-well plate (white wall/transparent bottom) at 5000 cells/well and cultured overnight.
(§4) On day 2, A stock solution of the compound at a concentration of 10 mM was subjected to an 8-fold serial dilution to obtain 8 concentration points. 2 µL of the compound solution at each concentration point was added to 98 µL of fresh medium, and the mixture was mixed homogeneously. Then, 5 µL of the compound solution diluted in the medium at each concentration point was added to 100 µL of overnight medium containing the cells, and 2 replicates were set for each concentration. The mixture was cultured for 72 h.
(§5) After 72 h of compound treatment, the plate was equilibrated to room temperature, 100 µL of CellTiterGlo (Promega) was added. The mixture was mixed homogeneously for 2 min, left to stand at room temperature for 10 min, and then read for luminescence values on a SpectraMax M5 microplate reader to evaluate cell viability. The positive control was 1% Tween-20 and the negative control was 0.1% DMSO. IC50 was generated by 4-parameter non-linear regression fitting in GraphPad Prism.

22RV1 = test: Cell proliferation assay (CellTiterGlo); conditions: 22RV1 cells, 72 h compound treatment, CellTiterGlo cell viability, read-out: 22Rv1 ATP average IC50
Method: as §1, §2, §3, §4, §5

BRD4 = BRD4 (Homo sapiens, UniProt O60885); test: BRD4 degradation assay (Western-blot / Simple Western) in 22RV1 cells; conditions: for activity at 0.2 µM: 22Rv1, 5 h, read-out: BRD4 degradation of 22RV1 (200 nM 5 h)

Structure (SMILES) | IC50 (LNCaP; Homo sapiens) [nM] | IC50 (22RV1; Homo sapiens) [nM] | activity at 0.2 µM (BRD4) [%] | IC50 (LNCaP) [nM] | IC50 (22RV1) [nM] | BRD4 degradation of 22RV1 (200 nM 5 h) (BRD4; 22RV1 cells, 200 nM, 5 h, target content as percentage of control (DMSO = 100%))
C#CC(=O)Nc1ccc(C2=N[C@@H](CC(=O)OC(C)(C)C)c3nnc(C)n3-c3sc(C)c(C)c32)cc1 [compound 9260] | < 50 | < 50 | < 20 |  |  | 
C=CC(=O)Nc1ccc(C2=N[C@@H](CC(=O)OC(C)(C)C)c3nnc(C)n3-c3sc(C)c(C)c32)cc1 [compound 9230] | < 50 | < 50 | < 20 |  |  | 
Cc1sc2c(c1C)C(c1ccc(NC(=O)CCl)cc1)=N[C@@H](Cc1nccs1)c1nnc(C)n1-2 [compound 9250] | < 50 | < 50 | 80 to 100 |  |  | 
C=CS(=O)(=O)Nc1ccc(C2=N[C@@H](CC(=O)OC(C)(C)C)c3nnc(C)n3-c3sc(C)c(C)c32)cc1 [compound 9231] | < 50 | 50 to 200 | < 20 |  |  | 
CC#CC(=O)Nc1ccc(C2=N[C@@H](Cc3nccs3)c3nnc(C)n3-c3sc(C)c(C)c32)cc1 [compound 9253] | < 50 | < 50 | 50 to 80 |  |  | 
CC#CC(=O)Nc1ccc(C2=N[C@@H](CC(=O)OC(C)(C)C)c3nnc(C)n3-c3sc(C)c(C)c32)cc1 [compound 9259] | < 50 | < 50 | 20 to 50 |  |  | 
Cc1sc2c(c1C)C(c1ccc(C#CCN)cc1)=N[C@@H](CC(=O)OC(C)(C)C)c1nnc(C)n1-2 [GNE-0011, reference compound] |  |  |  | < 50 | < 50 | B (20% < B <50%)
